Laboratory results published in ChEMBL document CHEMBL1201862, “PubChem BioAssay data set” (2004).
Activity calls are given as the source filed them.

Columns and labels:
[1] = target: T1, Rac GTPase-activating protein 1 (Homo sapiens, UniProt Q9H0H5); assay: blockers of MgcRacGAP-driven Rac1 GTP hydrolysis – biochemical, ADP Hunter fluorescence, primary and confirmatory, confirmation (AID 624330); format: functional
T1 sequence (Q9H0H5 whole entry): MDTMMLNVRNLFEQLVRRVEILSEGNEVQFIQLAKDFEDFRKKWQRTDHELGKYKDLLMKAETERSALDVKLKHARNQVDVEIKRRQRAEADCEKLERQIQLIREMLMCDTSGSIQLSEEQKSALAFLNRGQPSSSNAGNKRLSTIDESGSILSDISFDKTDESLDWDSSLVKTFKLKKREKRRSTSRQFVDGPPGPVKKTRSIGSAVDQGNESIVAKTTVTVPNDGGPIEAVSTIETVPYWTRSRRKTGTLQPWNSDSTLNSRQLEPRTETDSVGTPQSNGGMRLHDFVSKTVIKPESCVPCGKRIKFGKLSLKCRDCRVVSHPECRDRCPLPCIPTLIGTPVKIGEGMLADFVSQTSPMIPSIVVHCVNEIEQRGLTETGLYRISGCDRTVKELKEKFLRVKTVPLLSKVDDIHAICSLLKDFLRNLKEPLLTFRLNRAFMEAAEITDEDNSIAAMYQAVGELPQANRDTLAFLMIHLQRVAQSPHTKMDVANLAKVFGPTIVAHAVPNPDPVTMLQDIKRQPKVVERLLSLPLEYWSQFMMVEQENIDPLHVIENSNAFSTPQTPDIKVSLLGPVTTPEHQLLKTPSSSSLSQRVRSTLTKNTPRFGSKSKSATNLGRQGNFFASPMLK

[2] = target: T2, Protein skinhead-1 (Caenorhabditis elegans, UniProt P34707); format: functional
T2 sequence (P34707 whole entry): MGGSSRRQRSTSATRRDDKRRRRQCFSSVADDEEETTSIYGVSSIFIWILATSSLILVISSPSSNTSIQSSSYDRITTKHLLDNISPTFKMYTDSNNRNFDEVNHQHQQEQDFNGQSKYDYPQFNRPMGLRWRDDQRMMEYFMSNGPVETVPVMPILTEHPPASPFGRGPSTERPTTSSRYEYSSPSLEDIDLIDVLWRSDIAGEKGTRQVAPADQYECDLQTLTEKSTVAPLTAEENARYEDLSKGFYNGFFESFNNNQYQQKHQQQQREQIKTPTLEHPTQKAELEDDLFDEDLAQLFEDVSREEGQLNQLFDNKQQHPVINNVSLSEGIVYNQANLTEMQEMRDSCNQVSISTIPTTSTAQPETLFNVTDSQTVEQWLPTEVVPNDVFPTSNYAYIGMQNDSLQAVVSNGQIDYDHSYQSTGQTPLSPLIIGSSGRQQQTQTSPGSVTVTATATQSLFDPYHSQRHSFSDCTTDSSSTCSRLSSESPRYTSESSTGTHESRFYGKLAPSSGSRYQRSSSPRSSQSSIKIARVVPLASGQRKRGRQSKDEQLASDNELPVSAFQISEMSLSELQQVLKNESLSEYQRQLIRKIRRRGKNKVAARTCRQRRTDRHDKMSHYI

[3] = system: H4; assay: Luminescence Cell-Based Dose Response HTS to Identify Activators of 5'UTR Stem-Loop Driven Prion Protein mRNA Translation in H4 Neuroglioblastoma Cells. [Related pubchem assays: 1829 (Project Summary), 1814 (Primary HTS)]; format: functional; details: Homo sapiens
[4] = Luminescence Cell-Based Dose Response HTS to Identify Activators of Luciferase Translation or Activity in H4 […] Cells. [Related pubchem assays: 1829 (Project Summary), 1814 (Primary HTS)]; format: functional
[5] = viability of uninfected HEp-2 cells – cell-based, HTS, cytotoxicity control for RSV inhibitor project, dose response (AID 2410); format: functional; details: human respiratory syncytial virus
[6] = system: Streptococcus sp. 'group A'; assay: Streptococcus pyogenes SK(-)GAS viability under kanamycin – luminescence, BacTiterGlo, confirmation, counter-screen for streptokinase expression inhibitor project, dose response (AID 1900); format: functional, organism-based
[7] = target: T3, Streptokinase A (Streptococcus pyogenes serotype M1, UniProt P10520); assay: viability-normalized secreted streptokinase activity reduction – plasminogen activation absorbance, OD405, dose response (AID 1914); format: functional, Streptococcus pyogenes M1 GAS;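 note: secreted streptokinase activity via plasminogen activation per viability signal from cell pellet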
T3 sequence (P10520 whole entry): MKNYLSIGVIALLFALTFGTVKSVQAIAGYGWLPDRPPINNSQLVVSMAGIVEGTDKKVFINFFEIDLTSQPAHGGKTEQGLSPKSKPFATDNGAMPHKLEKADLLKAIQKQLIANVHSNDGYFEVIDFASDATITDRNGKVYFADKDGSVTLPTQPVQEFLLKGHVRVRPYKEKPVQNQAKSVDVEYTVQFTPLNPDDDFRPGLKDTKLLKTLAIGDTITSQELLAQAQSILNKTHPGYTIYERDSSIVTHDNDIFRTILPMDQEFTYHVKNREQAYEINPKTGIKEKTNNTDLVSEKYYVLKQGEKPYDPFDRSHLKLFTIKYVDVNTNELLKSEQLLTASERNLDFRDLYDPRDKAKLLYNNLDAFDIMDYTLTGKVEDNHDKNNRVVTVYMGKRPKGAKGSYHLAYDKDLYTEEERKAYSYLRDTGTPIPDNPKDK

[8] = system: Streptococcus; assay: GAS UMAA2166 growth inhibition – luminescence, BacTiterGlo, counter-screen for streptokinase expression inhibitor project, dose response (AID 1915); format: functional, organism-based;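 note: potency for reduction of bacterial viability or growth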
[9] = target: T4, Cytochrome P450 1A2 (Homo sapiens, UniProt P05177);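 note: PubChem cytochrome P450 panel assay, CYP1A2 panel member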
T4 sequence (P05177 whole entry): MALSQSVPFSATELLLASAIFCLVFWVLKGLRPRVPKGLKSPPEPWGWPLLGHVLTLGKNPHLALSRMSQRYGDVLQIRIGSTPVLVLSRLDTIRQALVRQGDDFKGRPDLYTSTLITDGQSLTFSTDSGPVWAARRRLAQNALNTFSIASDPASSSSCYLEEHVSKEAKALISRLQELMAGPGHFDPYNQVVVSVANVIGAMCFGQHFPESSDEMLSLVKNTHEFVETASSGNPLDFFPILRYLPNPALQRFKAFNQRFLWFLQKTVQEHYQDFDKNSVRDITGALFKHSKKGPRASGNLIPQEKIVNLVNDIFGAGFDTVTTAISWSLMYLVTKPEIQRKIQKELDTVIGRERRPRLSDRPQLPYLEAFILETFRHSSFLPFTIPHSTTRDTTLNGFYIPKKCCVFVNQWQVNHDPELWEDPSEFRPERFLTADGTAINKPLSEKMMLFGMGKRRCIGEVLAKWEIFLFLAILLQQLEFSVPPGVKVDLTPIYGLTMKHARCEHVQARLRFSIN

[10] = target: Cytochrome P450 2C9 (Homo sapiens, UniProt P11712)
[11] = target: Cytochrome P450 2C19 (Homo sapiens, UniProt P33261); assay: Cytochrome panel assay with activity outcomes. Panel member name: p450-cyp2c19 Compounds with AC50 equal or less than 10 uM are considered active; format: functional; details: read-out: AC50
[12] = target: Luciferin 4-monooxygenase (Photinus pyralis, UniProt P08659); assay: inhibition of purified Photinus pyralis luciferase – biochemical, luminescence, dose response (AID 1891)
[13] = Luminescence Cell-Based Dose Confirmation HTS to Identify Inhibitors of Platelet Dense Granule Release. [Related pubchem assays: 1663 (Primary HTS), 1678 (Summary of Project)]; format: functional

Chain of Cytochrome P450 2C9 (P11712 whole entry): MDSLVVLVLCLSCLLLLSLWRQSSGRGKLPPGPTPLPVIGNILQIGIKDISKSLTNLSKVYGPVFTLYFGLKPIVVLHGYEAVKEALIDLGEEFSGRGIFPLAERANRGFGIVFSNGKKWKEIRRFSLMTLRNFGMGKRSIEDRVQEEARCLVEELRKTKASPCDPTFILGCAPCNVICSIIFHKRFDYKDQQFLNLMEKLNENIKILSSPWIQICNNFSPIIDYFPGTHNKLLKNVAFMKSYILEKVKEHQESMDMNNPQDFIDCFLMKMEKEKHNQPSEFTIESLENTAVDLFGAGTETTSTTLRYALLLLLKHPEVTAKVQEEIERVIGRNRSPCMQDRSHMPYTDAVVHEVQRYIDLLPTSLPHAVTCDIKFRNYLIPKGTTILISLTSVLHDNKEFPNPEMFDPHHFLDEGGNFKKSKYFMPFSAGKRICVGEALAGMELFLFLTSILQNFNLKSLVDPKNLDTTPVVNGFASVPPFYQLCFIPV
Chain of Cytochrome P450 2C19 (P33261 whole entry): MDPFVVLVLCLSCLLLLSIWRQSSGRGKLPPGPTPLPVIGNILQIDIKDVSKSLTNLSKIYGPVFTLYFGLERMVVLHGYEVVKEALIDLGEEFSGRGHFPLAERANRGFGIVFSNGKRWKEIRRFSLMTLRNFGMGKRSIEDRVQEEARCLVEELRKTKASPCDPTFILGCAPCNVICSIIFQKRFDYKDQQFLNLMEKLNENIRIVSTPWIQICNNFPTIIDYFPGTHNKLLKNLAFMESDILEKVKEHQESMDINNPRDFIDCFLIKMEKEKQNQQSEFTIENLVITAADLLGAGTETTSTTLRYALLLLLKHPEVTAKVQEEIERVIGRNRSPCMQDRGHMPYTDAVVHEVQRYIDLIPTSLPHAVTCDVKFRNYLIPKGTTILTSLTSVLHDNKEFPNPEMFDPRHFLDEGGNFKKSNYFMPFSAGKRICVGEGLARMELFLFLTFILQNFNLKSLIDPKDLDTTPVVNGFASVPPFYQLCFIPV
Chain of Luciferin 4-monooxygenase (P08659 whole entry): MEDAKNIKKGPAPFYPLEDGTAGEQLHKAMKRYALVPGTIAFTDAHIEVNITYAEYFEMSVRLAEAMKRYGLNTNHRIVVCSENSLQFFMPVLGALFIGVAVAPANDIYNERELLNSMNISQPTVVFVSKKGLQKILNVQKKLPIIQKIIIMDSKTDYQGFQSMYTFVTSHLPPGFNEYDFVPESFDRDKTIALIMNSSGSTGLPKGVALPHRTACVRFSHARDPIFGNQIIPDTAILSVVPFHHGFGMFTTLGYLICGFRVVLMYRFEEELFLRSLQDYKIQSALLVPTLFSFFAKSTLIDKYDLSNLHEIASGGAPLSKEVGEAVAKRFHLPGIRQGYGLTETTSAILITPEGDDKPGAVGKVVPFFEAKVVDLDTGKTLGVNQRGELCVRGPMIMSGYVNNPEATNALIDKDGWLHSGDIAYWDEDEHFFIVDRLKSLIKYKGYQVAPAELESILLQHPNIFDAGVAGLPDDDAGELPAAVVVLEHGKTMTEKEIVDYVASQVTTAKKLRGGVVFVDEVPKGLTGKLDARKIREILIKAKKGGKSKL

O=c1cc(CN2CCOCC2)c2ccc(O)c(O)c2o1
IC50 [1]: 82.7 µM (active)

CCCCCOC(=O)c1ccc(NC(=O)c2ccco2)cc1
IC50 [2]: > 100 µM (inactive)

Fc1ccc(N2CCN(c3cnc4ccccc4n3)CC2)cc1
EC50 [3]: 12.8 µM (active) | IC50 [2]: 72.8 µM (inactive) | EC50 [4]: 0.244 µM (active)

COc1ccccc1C(=O)Nc1ccc2c(c1)nc(CCNC(=O)c1ccccc1)n2C
IC50 [2]: > 100 µM (inactive)

O=C(NCc1ccco1)c1sc2cc(Cl)ccc2c1Cl
IC50 [2]: > 100 µM (inactive)

O=S(=O)(c1ccccc1C(F)(F)F)N1CCC(c2nc(O)c3nnn(Cc4cccc(F)c4)c3n2)CC1
CC50 [5]: 32.2 µM (active)

O=S(=O)(Cc1ccc(Cl)cc1)Oc1ccc(Cl)cc1
IC50 [2]: > 100 µM (inactive)

Cc1[nH]c2ccccc2c1SCc1ccccc1
IC50 [2]: 42.6 µM (active)

COc1ccc2nc(-c3ccc(Cl)cc3)cc(C(=O)O)c2c1
CC50 [5]: 19.9 µM (active)

CCOC(=O)C1CCCN(C2=NC(=O)/C(=C/c3ccc(O)c(OCC)c3)S2)C1 (stereo unspecified)
IC50 [1]: 26.5 µM (active)

CC(=O)N1CCN(c2ccc(NCc3ccc(C(C)C)cc3)cc2)CC1
IC50 [1]: 10.4 µM (active) | IC50 [2]: > 100 µM (inactive)

CC(C)CCNC(=O)NC(=O)COc1c(F)c(F)cc(F)c1F
IC50 [2]: > 100 µM (inactive)

COc1ccc(C2CC(c3ccccc3)=NN2C(=O)c2cccs2)cc1 (stereo unspecified)
EC50 [6]: 4.88 µM (active) | EC50 [7]: > 150 µM (not active) | EC50 [8]: 12.4 µM (active) | IC50 [2]: > 100 µM (inactive)

Cc1cc(Nc2ccccc2C(=O)O)n(-c2cccc(Cl)c2)n1
CC50 [5]: 30.9 µM (active)

CC1=N/C(=C\c2ccc([N+](=O)[O-])cc2)C(=O)N1c1ccc(Br)c(C)c1
AC50 [9]: 5.62 µM (inconclusive) | AC50 [10]: 7.94 µM (inconclusive)

C/C(=N\NC(=O)C1CC1)c1ccc(Cl)c(Cl)c1
CC50 [5]: > 50 µM (active)

CCc1ccc(Nc2oc(C)cc(=O)c2C(C)=O)cc1
IC50 [2]: > 100 µM (inactive)

CCOC(=O)Nc1ccc(NCc2ccc(F)cc2)nc1N [FLUPIRTINE]
AC50 [9]: 39.8 µM (inconclusive) | AC50 [10]: 25.1 µM (inconclusive) | AC50 [11]: 25.1 µM (inconclusive)

CC(=O)c1ccc(NCC2COc3ccccc3O2)c([N+](=O)[O-])c1 (stereo unspecified)
CC50 [5]: > 50 µM (active)

CC1Cc2ccccc2N1S(=O)(=O)c1cccc(C(=O)NC2CC2)c1 (stereo unspecified)
CC50 [5]: > 50 µM (active)

CCCS(=O)(=O)N1CCN(C2CCC(C)CC2)CC1 (stereo unspecified)
IC50 [1]: 232 µM (active)

COc1ccc(NS(=O)(=O)c2cccc(C(=O)NN=Cc3ccc(O)c(OC)c3)c2)cc1
IC50 [1]: 79.4 µM (active)

Cc1ccc2c(c1)CCCN2C(=O)CSc1ccccc1
CC50 [5]: 47.2 µM (active)

CSCC[C@H](N)C(=O)N1CCC(C(=O)N[C@@H](Cc2c[nH]c3ccccc23)C(=O)O)CC1
IC50 [2]: > 100 µM (inactive)

CC(C)C(c1nnnn1Cc1ccco1)N1CCN(C2CCCC2)CC1 (stereo unspecified)
IC50 [2]: > 100 µM (inactive)

O=C1C=C(c2ccc3ncccc3c2)C[C@@H](c2ccc(F)cc2)C1
CC50 [5]: 30 µM (active)

COc1ccc(NCCC(O)c2ccc(Cl)cc2)cc1 (stereo unspecified)
IC50 [1]: 29.1 µM (active)

O=C(Nc1ccc2c(c1)CCC2)c1ccc(Cl)nc1
CC50 [5]: 36.7 µM (active)

O=C(c1cccc(F)c1)N1CCN(C2CCCCC2)CC1
IC50 [1]: 116 µM (active)

Cn1nccc1C(=O)N1CCC(Cc2ccccc2)CC1
IC50 [2]: > 100 µM (inactive)

CN1/C(=C\C(=O)Nc2cccc(Cl)c2)C(C)(C)c2ccccc21
IC50 [2]: > 100 µM (inactive)

COc1cc(/C=N/NC(=O)/C(=C/c2ccccc2)CCO)ccc1O
IC50 [1]: 35.7 µM (active) | EC50 [12]: > 112 µM (not active) | EC50 [13]: 11.1 µM (active)

O=C(c1ccncc1)N1CCC2(CC1)CCN(C(c1ccccc1)c1ccccc1)CC2
AC50 [9]: 12.6 µM (inconclusive) | AC50 [10]: 12.6 µM (inconclusive) | AC50 [11]: 39.8 µM (inconclusive)
